Consider 17 compounds from patent US8450313B2, “2,3-diaryl- or heteroaryl-substituted 1,1,1-trifluoro-2-hydroxypropyl compounds” (Hoffmann-La Roche Inc., priority 2009, dated 2013).

In this assay the target is T1, full length human recombinant glucocorticoid receptor (Homo sapiens, UniProt P04150).
T1 construct: It contains some partially purified full length human recombinant glucocorticoid receptor; purchased Panvera/Invitrogen PV4302
T1 sequence (P04150 1-777): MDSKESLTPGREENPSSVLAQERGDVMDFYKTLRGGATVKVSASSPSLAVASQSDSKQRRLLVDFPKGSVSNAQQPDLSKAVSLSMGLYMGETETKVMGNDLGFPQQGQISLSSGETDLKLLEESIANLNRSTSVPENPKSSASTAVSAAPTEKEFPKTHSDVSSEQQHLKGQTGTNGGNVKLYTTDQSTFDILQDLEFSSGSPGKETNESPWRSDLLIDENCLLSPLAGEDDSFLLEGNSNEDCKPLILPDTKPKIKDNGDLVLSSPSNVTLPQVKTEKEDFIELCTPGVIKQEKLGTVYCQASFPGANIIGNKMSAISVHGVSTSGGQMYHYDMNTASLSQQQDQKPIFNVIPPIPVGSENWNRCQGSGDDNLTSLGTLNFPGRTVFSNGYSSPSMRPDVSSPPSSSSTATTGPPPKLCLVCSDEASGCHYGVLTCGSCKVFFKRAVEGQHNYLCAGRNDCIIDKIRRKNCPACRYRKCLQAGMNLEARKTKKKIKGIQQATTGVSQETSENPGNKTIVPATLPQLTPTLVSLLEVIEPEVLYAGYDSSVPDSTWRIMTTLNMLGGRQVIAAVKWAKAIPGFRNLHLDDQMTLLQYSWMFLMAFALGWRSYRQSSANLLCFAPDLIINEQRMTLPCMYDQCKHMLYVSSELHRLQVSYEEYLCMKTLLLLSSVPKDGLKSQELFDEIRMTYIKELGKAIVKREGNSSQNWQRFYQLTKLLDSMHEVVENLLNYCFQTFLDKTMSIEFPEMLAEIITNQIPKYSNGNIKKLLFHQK
The assay can be described thus: Glucocorticoid Receptor Binding Assay (Glucocorticoid Receptor Competitor Assay far red kit, fluorescence polarization). The conditions noted are these: competition with fluorescent GR ligand Fluormone GS Far Red, 3 hours at 22° C., pH 7.4; Ki calculated from IC50 by Cheng-Prusoff. On the procedure:
Glucocorticoid Receptor Binding Assay
The ability of the substances to bind to the glucocorticoid receptor was determined with the help of a commercial Glucocorticoid Receptor Competitor Assay far red kit provided by Panvera/Invitrogen (PV4302). This kit is used as provided by the supplier. It contains some partially purified full length human recombinant glucocorticoid receptor, a coactivator related GR stabilizing peptide, a tight-binding fluorescent GR ligand Fluormone™ GS Far Red as labeled tracer and a screening buffer. All reagents are prepared and the assay is run according to the recommendations of the kit manufacturer.
Briefly, the GR stabilizing peptide and the human recombinant glucocorticoid receptor are both diluted with the screening buffer (pH 7.4) and are gently mixed (no vortexing) just before the assay and kept on ice until use. The fluorescent-labeled ligand is also diluted with the screening buffer just before the assay and kept on ice until use. The substances to test are pre-diluted in pure DMSO then some water is added to get an intermediate 4.2% DMSO stock solution. Ten microliter of the intermediate stock solution is gently mixed with 5 μA of diluted fluorescent-labeled ligand and 5 μl of diluted human recombinant glucocorticoid receptor in a 384-well plate (low volume, ultraclear, glass plate from Greiner ref 788896). The plate is centrifuged, sealed and incubated for 3 hours at 22° C. in the dark. The polarized fluorescence is measured with a Zeiss-HTS reader or any equivalent equipment (610-660 nm).
All compounds were tested to determine IC50 in a serial dilution experiment. The concentration at which 50% inhibition of the fluorescent GR ligand Fluormone™ GS Far Red is obtained (the IC50) is determined after fitting with a sigmoidal dose-response model of a plot of the logarithm of the concentration versus percent inhibition measured for the different concentrations. Ki's were calculated from IC50 based on Cheng-Prusoff equation (Cheng, Y, Prusoff, W H (1973) Biochem Pharmacol 22, 3099-3108): Ki=IC50/[1+D/Kd] wherein D is the concentration of the fluorescent ligand and Kd is the binding constant for the fluorescent ligand binding to the receptor under the conditions used in the competition experiment.

Regarding `COC(=O)c1ccc(-c2ccc([C@H](C)[C@](O)(c3ccc4c(c3)N(C)C(=O)CO4)C(F)(F)F)c(Cl)c2)cc1F` (racemic) [Example 25, 3′-Chloro-3-fluoro-4′-[3,3,3-trifluoro-2-hydroxy-1-methyl-2-(4-methyl-3-oxo-3,4-dihydro-2H-benzo[1,4]oxazin-6-yl)-propyl]-biphenyl-4-carboxylic acid methyl ester], the Ki was 2.8 nM.
The value for `C[C@H](c1ccc(Oc2ccc(F)c(C(=O)O)c2)cc1Cl)[C@@](O)(c1ccc2c(c1)N(C)C(=O)CO2)C(F)(F)F` (racemic) [Example 56, 5-{3-Chloro-4-[3,3,3-trifluoro-2-hydroxy-1-methyl-2-(4-methyl-3-oxo-3,4-dihydro-2H-benzo[1,4]oxazin-6-yl)-propyl]-phenoxy}-2-fluoro-benzoic acid] was 0.3 nM; that for `C[C@H](c1ccc(Oc2ccc(Cl)c(C(=O)O)c2)cc1Cl)[C@@](O)(c1ccc2c(c1)N(C)C(=O)CO2)C(F)(F)F` (racemic) [Example 58, 2-Chloro-5-{3-chloro-4-[3,3,3-trifluoro-2-hydroxy-1-methyl-2-(4-methyl-3-oxo-3,4-dihydro-2H-benzo[1,4]oxazin-6-yl)-propyl]-phenoxy}-benzoic acid] was 0.3 nM; that for `C[C@H](c1ccc(Oc2ccc(C(=O)O)c(Cl)c2)cc1Cl)[C@@](O)(c1ccc2c(c1)N(C)C(=O)CO2)C(F)(F)F` (racemic) [Example 59, 2-Chloro-4-{3-chloro-4-[3,3,3-trifluoro-2-hydroxy-1-methyl-2-(4-methyl-3-oxo-3,4-dihydro-2H-benzo[1,4]oxazin-6-yl)-propyl]-phenoxy}-benzoic acid] was 1 nM.
Then `C[C@H](c1ccc(Oc2ccc(C(=O)O)cc2)cc1Cl)[C@@](O)(c1ccc2c(c1)N(C)C(=O)CO2)C(F)(F)F` (racemic) [Example 60, 4-{3-Chloro-4-[3,3,3-trifluoro-2-hydroxy-1-methyl-2-(4-methyl-3-oxo-3,4-dihydro-2H-benzo[1,4]oxazin-6-yl)-propyl]-phenoxy}-benzoic acid], with 2.3 nM.
The value for `C[C@H](c1ccc(Oc2cccc(C(=O)O)c2)cc1Cl)[C@@](O)(c1ccc2c(c1)N(C)C(=O)CO2)C(F)(F)F` (racemic) [Example 61, 3-{3-Chloro-4-[3,3,3-trifluoro-2-hydroxy-1-methyl-2-(4-methyl-3-oxo-3,4-dihydro-2H-benzo[1,4]oxazin-6-yl)-propyl]-phenoxy}-benzoic acid] was 1 nM; that for `C[C@H](c1ccc(Oc2ccc(C(=O)O)c(Cl)n2)cc1Cl)[C@@](O)(c1ccc2c(c1)N(C)C(=O)CO2)C(F)(F)F` (racemic) [Example 63, 2-Chloro-6-{3-chloro-4-[3,3,3-trifluoro-2-hydroxy-1-methyl-2-(4-methyl-3-oxo-3,4-dihydro-2H-benzo[1,4]oxazin-6-yl)-propyl]-phenoxy}-nicotinic acid] was 0.8 nM; that for `CCN1C(=O)COc2ccc([C@](O)([C@H](C)c3ccc(-c4ccc(C(=O)O)c(Cl)c4)cc3Cl)C(F)(F)F)cc21` (racemic) [Example 64, 3,3′-Dichloro-4′-[2-(4-ethyl-3-oxo-3,4-dihydro-2H-benzo[1,4]oxazin-6-yl)-3,3,3-trifluoro-2-hydroxy-1-methyl-propyl]-biphenyl-4-carboxylic acid] was 97.9 nM.
Consider `C[C@H](c1ccc(-c2ccc(C(=O)O)c(F)c2)cc1Cl)[C@@](O)(c1ccc2oc(=O)n(C)c2c1)C(F)(F)F` (racemic) [Example 118, 3′-Chloro-3-fluoro-4′-[3,3,3-trifluoro-2-hydroxy-1-methyl-2-(3-methyl-2-oxo-2,3-dihydro-benzooxazol-5-yl)-propyl]-biphenyl-4-carboxylic acid], for which the Ki is 1 nM.
Turning to `CCOC(=O)C(C)(C)Oc1ccc([C@@H](C)[C@@](O)(c2ccc3c(c2)N(C)C(=O)CO3)C(F)(F)F)c(Cl)c1` (racemic) [Example 206, 2-{3-Chloro-4-[3,3,3-trifluoro-2-hydroxy-1-methyl-2-(4-methyl-3-oxo-3,4-dihydro-2H-benzo[1,4]oxazin-6-yl)-propyl]-phenoxy}-2-methyl-propionic acid ethyl ester], the Ki is 6.2 nM.
`COC(=O)c1cnc(Oc2ccc([C@@H](C)[C@@](O)(c3ccc4c(c3)N(C)C(=O)CO4)C(F)(F)F)c(Cl)c2)cc1Cl` (racemic) [Example 210, 4-Chloro-6-{3-chloro-4-[3,3,3-trifluoro-2-hydroxy-1-methyl-2-(4-methyl-3-oxo-3,4-dihydro-2H-benzo[1,4]oxazin-6-yl)-propyl]-phenoxy}-nicotinic acid methyl ester]: the Ki is 1.5 nM.
Turning to `COC(=O)c1cnc(Oc2ccc([C@@H](C)[C@@](O)(c3ccc4c(c3)N(C)C(=O)CO4)C(F)(F)F)c(Cl)c2)c(Cl)c1` (racemic) [Example 212, 5-Chloro-6-{3-chloro-4-[3,3,3-trifluoro-2-hydroxy-1-methyl-2-(4-methyl-3-oxo-3,4-dihydro-2H-benzo[1,4]oxazin-6-yl)-propyl]-phenoxy}-nicotinic acid methyl ester], the Ki is 1 nM.
The value for `C[C@H](c1ccc(Oc2ncc(C(=O)O)cc2Cl)cc1Cl)[C@@](O)(c1ccc2c(c1)N(C)C(=O)CO2)C(F)(F)F` (racemic) [Example 213, 5-Chloro-6-{3-chloro-4-[3,3,3-trifluoro-2-hydroxy-1-methyl-2-(4-methyl-3-oxo-3,4-dihydro-2H-benzo[1,4]oxazin-6-yl)-propyl]-phenoxy}-nicotinic acid] was 1.7 nM; that for `CCOC(=O)c1ccc(Oc2ccc([C@@H](C)[C@@](O)(c3ccc4c(c3)N(C)C(=O)CO4)C(F)(F)F)c(Cl)c2)nc1C(F)(F)F` (racemic) [Example 214, 6-{3-Chloro-4-[3,3,3-trifluoro-2-hydroxy-1-methyl-2-(4-methyl-3-oxo-3,4-dihydro-2H-benzo[1,4]oxazin-6-yl)-propyl]-phenoxy}-2-trifluoromethyl-nicotinic acid ethyl ester] was 4.1 nM; that for `C[C@H](c1ccc(Oc2ccc(C(=O)O)c(C(F)(F)F)c2)cc1Cl)[C@@](O)(c1ccc2c(c1)N(C)C(=O)CO2)C(F)(F)F` (racemic) [Example 220, 4-{3-Chloro-4-[3,3,3-trifluoro-2-hydroxy-1-methyl-2-(4-methyl-3-oxo-3,4-dihydro-2H-benzo[1,4]oxazin-6-yl)-propyl]-phenoxy}-2-trifluoromethyl-benzoic acid] was 1.1 nM.
The value for `COC(=O)c1cnc(Oc2ccc([C@@H](C)[C@@](O)(c3ccc4c(c3)N(C)C(=O)CO4)C(F)(F)F)c(Cl)c2)nc1C(F)(F)F` (racemic) [Example 225, 2-{3-Chloro-4-[3,3,3-trifluoro-2-hydroxy-1-methyl-2-(4-methyl-3-oxo-3,4-dihydro-2H-benzo[1,4]oxazin-6-yl)-propyl]-phenoxy}-4-trifluoromethyl-pyrimidine-5-carboxylic acid methyl ester] was 7.8 nM; that for `COC(=O)c1cnc(Oc2ccc([C@@H](C)[C@@](O)(c3ccc4c(c3)N(C)C(=O)CO4)C(F)(F)F)c(Cl)c2)nc1` (racemic) [Example 226, 2-{3-Chloro-4-[3,3,3-trifluoro-2-hydroxy-1-methyl-2-(4-methyl-3-oxo-3,4-dihydro-2H-benzo[1,4]oxazin-6-yl)-propyl]-phenoxy}-pyrimidine-5-carboxylic acid methyl ester] was 5.9 nM.
